Experimental data: US20230263786A1, “MODULATION OF DRUG-DRUG INTERACTIONS OF VADADUSTAT” (Akebia Therapeutics, Inc., priority 2020, published 2023)
Where “and” joins values, the source holds several entries; their conditions need not be identical. Identical values can stand only once.

Tests used:
[1] = Phase I ferrous sulfate tablet interaction study; settings: for Metabolite Ratio AUC(0-t) / Metabolite Ratio Cmax / Metabolite Ratio AUC(0-inf): Metabolite/Parent; for AUC(0-t) / Cmax / Tmax / AUC(0-inf): metabolite in plasma; for AUC(0-t) / Cmax / AUC(0-inf): mean; for Tmax: median;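 as to all read-outs here: crossover in fasted human subjects with four-day washout between periods, plasma glucuronide metabolite pharmacokinetics, ratios computed as metabolite over parent for AUC and Cmax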
Method: Pharmacokinetics. […] The ratio of metabolite to parent was calculated for each glucuronide metabolite for AUC(0-t); and AUC(0-inf) and Cmax.
Comparative Bioavailability. […] Factors incorporated in the model included: Sequence, Subject (Sequence), Period, and Treatment.
Treatment of Subjects. […] All subjects are dosed on the same day for Day 1 of Confinement Period 1, and are crossed over to the alternate treatment and are dosed on the same day for Day 1 of Confinement Period 2. Both treatments are administered in a fasted state, and a four-day Washout Period separates each Confinement Period.

[2] = Phase I interaction study Part 3 Arm 1: atorvastatin; type: in vivo, human; settings: for AUC0-∞, Ratio of geometric mean value Combined/alone / Cmax, Ratio of geometric mean value Combined/alone: Atorvastatin 40 mg, Compound 1 600 mg; for AUCtau, Geometric LSM Ratio (A + V/A) / Cmax, Geometric LSM Ratio (A + V/A): atorvastatin 40 mg QD, vadadustat 600 mg QD; for AUC / Cmax: both sexes, human, plasma, oral, 40 mg; for AUC: heading: AUCtau, Geometric LSM; for Cmax: read-out: Cmax, Geometric LSM
From the text: Subjects were discharged from the clinical research unit on the morning of Day 9.

[3] = Phase I interaction study Part 1: rosuvastatin; type: in vivo, human; settings: for AUC(0-inf) / AUC(0-t) / Cmax: both sexes, human, plasma, oral; for AUC(0-inf): read-out: AUC0-inf, Geometric LSM; for AUC(0-t): read-out: AUC0-last, Geometric LSM; for Cmax: read-out: Cmax, Geometric LSM
Method: In Part 1, 34 subjects were treated with the study drug. On the morning of Day 1, subjects received a single oral dose of rosuvastatin 20 mg after at least a 10-hour overnight fast. Subjects would remain fasted for at least 4 hours after dosing. […] When administered alone, vadadustat would be administered in the morning at least 30 minutes prior to breakfast. On Day 10, subjects received their morning dose of vadadustat 600 mg along with a single oral dose of rosuvastatin 20 mg after at least a 10-hour overnight fast. Subjects would remain fasted for at least 4 hours after dosing. Subjects were discharged from the clinical research unit (CRU) on the morning of Day 15.

[4] = Phase I interaction study Part 3 Arm 2: simvastatin; type: in vivo, human
Method: Subjects would remain fasted for approximately 4 hours after dosing. […] Subjects would remain fasted for at least 4 hours after dosing. Subjects were discharged from the clinical research unit on the morning of Day 6.

[5] = Phase I interaction study Part 2 Arm 1: sulfasalazine; type: in vivo, human; settings: for AUC(0-inf) / AUC(0-t) / Cmax: both sexes, 500 mg
Method: The study included 3 periods as follow: • Screening: performed within 28 days prior to dosing on Day 1. • Treatment period: […] In Part 2 (Arm 1): For each dose of sulfasalazine administered, blood samples for PK analysis were collected at the following timepoints: pre-dose, 0.5, 1, 2, 3, 4, 5, 6, 8, 12, 18, 24, 36, 48, 60, 72 and 96 hours postdose. […] Arm 1 (sulfasalazine): 26 subjects were treated with the study drug. On the morning of Day 1, subjects received a single oral dose of sulfasalazine 500 mg after at least a 10-hour overnight fast. Subjects would remain fasted for approximately 4 hours after dosing. Following a 5-day washout period (Days 1-5) subjects received vadadustat 600 mg once daily beginning on Day 6 for 7 days (Days 6-12). […] On Day 9, subjects received their morning dose of vadadustat 600 mg along with a single oral dose of sulfasalazine 500 mg after at least a 10-hour overnight fast. Subjects would remain fasted for at least 4 hours after dosing. Subjects were discharged from the clinical research unit on the morning of Day 13.

[6] = [14C]-labeled Compound 1 650 mg metabolism and excretion; type: in vivo, human; settings: single oral 650 mg [14C]-labeled Compound 1, healthy adult males
From the text: Compound 1 is metabolized via UGT, mainly producing O-glucuronide conjugates.
The urinary excretion rate of this drug and acyl glucuronide is less than 1% of the total radioactivity.

[7] = Phase I single-dose study, moderate hepatic impairment versus normal hepatic function; type: in vivo, human; settings: single 450 mg; for AUC0-inf, plasma, total / AUC0-last, plasma, total / Cmax, plasma, total / Elimination Half-life (t1/2): mean ± SD
Method: A phase I, open-label, parallel-group, single-dose study was conducted to evaluate the pharmacokinetics (PK) of 450 mg vadadustat administered in adults with moderate hepatic impairment (Child-Pugh Class B) versus those with normal hepatic function. The pharmacokinetic (pK) parameters of Compound 1 were characterized. Safety and tolerability were assessed throughout the study.
Inclusion criteria: participants were male and female adults between 18 and 70 years of age, with either normal hepatic function or moderate hepatic impairment based on the Child-Pugh classification (Child-Pugh Class B [score 7-9]). Moderate hepatic impairment was defined by the presence and severity of elevated bilirubin levels, decreased serum albumin levels, elevated international normalized ratios >2.20, ascites, and hepatic encephalopathy.
Pharmacokinetics. […] PK parameters Ae0-72, Fe %0-72, and CL, were estimated from the urine concentration-time profiles.
8 subjects with hepatic impairment and 8 matched subjects with normal hepatic function were enrolled in the study. All subjects received a single oral 450-mg dose of vadadustat on Day 1 and were required to fast for at least 10 hours before dosing and for 4 hours after dosing.

[8] = Phase I interaction study Part 2 Arm 2: pravastatin; type: in vivo, human; settings: for Cmax / AUC(0-inf) / AUC(0-t): both sexes, human, plasma, oral; for AUC(0-inf): read-out: AUC0-inf, Geometric LSM; for AUC(0-t): read-out: AUC0-last, Geometric LSM
Method: The pharmacokinetic (pK) parameters and safety of said drugs administered alone and in combination with Compound 1 were characterized.
Arm 2 (pravastatin): 26 subjects were treated with the study drug. On the morning of Day 1, subjects received a single oral dose pravastatin 40 mg after at least a 10-hour overnight fast. Subjects would remain fasted for approximately 4 hours after dosing. Following a 2-day washout period (Days 1-2) subjects received vadadustat 600 mg once daily beginning on Day 3 for 4 days (Days 3-6). When administered alone, vadadustat would be administered in the morning at least 30 minutes prior to breakfast. On Day 6, subjects received their morning dose of vadadustat 600 mg along with a single oral dose of pravastatin 40 mg after at least a 10-hour overnight fast. Subjects would remain fasted for at least 4 hours after dosing. Subjects were discharged from the clinical research unit on the morning of Day 7.

[9] = treatment Compound 1 450 mg alone
[10] = Rosuvastatin 20 mg, Compound 1 600 mg
[11] = Treatment R + V: rosuvastatin 20 mg + vadadustat 600 mg QD
[12] = Treatment R: rosuvastatin 20 mg alone
[13] = rosuvastatin 20 mg, vadadustat 600 mg QD
[14] = administered with Compound 1 compared to alone
[15] = both sexes, human, in vivo, 40 mg
[16] = Treatment P + V: pravastatin 40 mg + vadadustat 600 mg QD
[17] = Treatment P: pravastatin 40 mg alone
[18] = pravastatin 40 mg, vadadustat 600 mg QD

## O=C(CNC(=O)c1ncc(-c2cccc(Cl)c2)cc1O)O[C@@H]1O[C@H](C(=O)O)[C@@H](O)[C@H](O)[C@H]1O [Compound 1-acyl-glucuronide]
[1]; treatment Compound 1 + Iron
  Metabolite Ratio AUC(0-t): 0.000458
  Metabolite Ratio Cmax: 0.000909
  AUC(0-t): 86.4 ng·h/mL
  Cmax: 32.2 ng/mL
  Tmax: 3.0 h
[1]; treatment Compound 1 alone
  Metabolite Ratio AUC(0-t): 0.00543
  Metabolite Ratio Cmax: 0.00112
[1]; [9]
  AUC(0-t): 208 ng·h/mL
  Cmax: 82.6 ng/mL
  Tmax: 1.75 h

## CC(C)c1c(C(=O)Nc2ccccc2O)c(-c2ccccc2)c(-c2ccc(F)cc2)n1CC[C@@H](O)C[C@@H](O)CC(=O)O [o-hydroxy atorvastatin, (3R,5R)-7-[2-(4-fluorophenyl)-4-[(2-hydroxyphenyl)carbamoyl]-3-phenyl-5-propan-2-ylpyrrol-1-yl]-3,5-dihydroxyheptanoic acid]
[2]
  AUC0-∞, Ratio of geometric mean value Combined/alone: 112.01%
  Cmax, Ratio of geometric mean value Combined/alone: 91.20%
  AUCtau, Geometric LSM Ratio (A + V/A): 111.34%
  Cmax, Geometric LSM Ratio (A + V/A): 91.20%
  AUC: 96 ng·h/mL
  Cmax: 15 ng/mL

## CC(C)c1nc(N(C)S(C)(=O)=O)nc(-c2ccc(F)cc2)c1/C=C/[C@@H](O)C[C@@H](O)CC(=O)O [Rosuvastatin, rosuvastatin]
[3]; [10]
  AUC0-∞, Ratio of geometric mean value Combined/alone: 246.86%
  Cmax, Ratio of geometric mean value Combined/alone: 274.80%
[3]; [11]
  AUC(0-inf): 254 ng·h/mL
  AUC(0-t): 249 ng·h/mL
  Cmax: 27.9 ng/mL
[3]; [12]
  AUC(0-inf): 103 ng·h/mL
  AUC(0-t): 98.4 ng·h/mL
  Cmax: 10.2 ng/mL
[3]; [13]
  AUC0-inf, Geometric LSM Ratio (R + V/R): 246.86%
  AUC0-last, Geometric LSM Ratio (R + V/R): 252.86%
  Cmax, Geometric LSM Ratio (R + V/R): 274.80%

## CCC(C)(C)C(=O)O[C@H]1C[C@@H](C)C=C2C=C[C@H](C)[C@H](CC[C@@H]3C[C@@H](O)CC(=O)O3)[C@H]21 [Simvastatin, simvastatin, reference compound]
[4]; [14]
  increase of total exposure: about 2 fold

## O=C(O)c1cc(/N=N/c2ccc(S(=O)(=O)Nc3ccccn3)cc2)ccc1O [Sulfasalazine, sulfasalazine, reference compound]
[5]; human, in vivo
  AUC(0-inf): 82700 ng·h/mL
  AUC(0-t): 82200 ng·h/mL
  Cmax: 9700 ng/mL
[5]; both, human, in vivo
  increase of systemic exposure: up to 4.5 fold

## O=C(O)CNC(=O)c1ncc(-c2cccc(Cl)c2)cc1O[C@@H]1O[C@H](C(=O)O)[C@@H](O)[C@H](O)[C@H]1O [Compound 1-O-glucuronide]
[6]
  share of the total radioactivity (AUC0-∞) in plasma: about 15%
[7]; Moderate Hepatic Impairment
  Ae0-72, cumulative amount excreted in urine up to 72 hours: 585 ± 125.1 mg
  Fe%0-72, cumulative fraction excreted in urine: 82.8% and 82.8 ± 17.69%
  AUC0-inf, plasma, total: 70900 ± 24300 ng·h/mL
  AUC0-last, plasma, total: 68900 ± 24200 ng·h/mL
  Cmax, plasma, total: 5850 ± 1500 ng/mL
  Elimination Half-life (t1/2): 6.01 ± 2.1 h
[7]; Normal Liver Function
  Ae0-72, cumulative amount excreted in urine up to 72 hours: 473 ± 83.76 mg
  Fe%0-72, cumulative fraction excreted in urine: 66.9% and 66.9 ± 11.84%
  AUC0-inf, plasma, total: 63800 ± 21300 ng·h/mL
  AUC0-last, plasma, total: 62500 ± 21300 ng·h/mL
  Cmax, plasma, total: 6650 ± 2400 ng/mL
  Elimination Half-life (t1/2): 4.74 ± 1.3 h
[1]; treatment Compound 1 + Iron
  Metabolite Ratio AUC(0-inf): 0.0943
  Metabolite Ratio AUC(0-t): 0.0935
  Metabolite Ratio Cmax: 0.0748
  AUC(0-inf): 19700 ng·h/mL
  AUC(0-t): 18600 ng·h/mL
  Cmax: 2830 ng/mL
  Tmax: 5.0 h
[1]; treatment Compound 1 alone
  Metabolite Ratio AUC(0-inf): 0.104
  Metabolite Ratio AUC(0-t): 0.104
  Metabolite Ratio Cmax: 0.0848
[1]; [9]
  AUC(0-inf): 44500 ng·h/mL
  AUC(0-t): 42800 ng·h/mL
  Cmax: 6070 ng/mL
  Tmax: 4.0 h

## Nc1ccc(S(=O)(=O)Nc2ccccn2)cc1 [Sulfapyridine, sulfapyridine]
[5]; human, in vivo
  AUC(0-inf): 42800 ng·h/mL
  AUC(0-t): 42400 ng·h/mL
  Cmax: 2580 ng/mL

## Nc1ccc(O)c(C(=O)O)c1 [Mesalamine, mesalamine]
[5]; Treatment S: sulfasalazine 500 mg alone
  AUC0-last, Geometric LSM: 220 ng·h/mL
[5]; human, in vivo
  AUC(0-inf): 247 ng·h/mL
  Cmax: 22 ng/mL

## CCC(C)(C)C(=O)O[C@H]1C[C@@H](C)C=C2C=C[C@H](C)[C@H](CC[C@@H](O)C[C@@H](O)CC(=O)O)[C@H]21 [β-hydroxysimvastatin acid, (3R,5R)-7-[(1S,2S,6R,8S,8aR)-8-(2,2-dimethylbutanoyloxy)-2,6-dimethyl-1,2,6,7,8,8a-hexahydronaphthalen-1-yl]-3,5-dihydroxyheptanoic acid]
[4]; [15]
  AUC(0-inf): 20200 ng·h/mL
  AUC(0-t): 17300 ng·h/mL
  Cmax: 1850 ng/mL

## CC[C@H](C)C(=O)O[C@H]1C[C@H](O)C=C2C=C[C@H](C)[C@H](CC[C@@H](O)C[C@@H](O)CC(=O)O)[C@H]21 [Pravastatin, pravastatin]
[8]; [14]
  change of systemic exposure: unchanged
[8]; [16]
  Cmax: 44 ng/mL
  AUC(0-inf): 137000 ng·h/mL
  AUC(0-t): 134000 ng·h/mL
[8]; [17]
  Cmax: 53.2 ng/mL
  AUC(0-inf): 134000 ng·h/mL
  AUC(0-t): 130000 ng·h/mL
[8]; [18]
  AUC0-inf, Geometric LSM Ratio (P + V/P): 102.03%
  AUC0-last, Geometric LSM Ratio (P + V/P): 102.98%
  Cmax, Geometric LSM Ratio (P + V/P): 82.74%

## CC(C)c1c(C(=O)Nc2ccc(O)cc2)c(-c2ccccc2)c(-c2ccc(F)cc2)n1CC[C@@H](O)C[C@@H](O)CC(=O)O [p-hydroxy atorvastatin, (3R,5R)-7-[2-(4-fluorophenyl)-4-[(4-hydroxyphenyl)carbamoyl]-3-phenyl-5-propan-2-ylpyrrol-1-yl]-3,5-dihydroxyheptanoic acid]
[2]
  AUC0-∞, Ratio of geometric mean value Combined/alone: 167.57%
  Cmax, Ratio of geometric mean value Combined/alone: 230.48%
  AUCtau, Geometric LSM Ratio (A + V/A): 175.60%
  Cmax, Geometric LSM Ratio (A + V/A): 230.48%
  AUC: 8.92 ng·h/mL
  Cmax: 0.62 ng/mL
